From patent publication US20220127297A1, “Novel Antibacterial 3"-Derivatives Of 4,6-Disubstituted 2,5-Dideoxystreptamine Aminoglycoside Antibiotics” (AGILeBiotics B.V., priority 2018, published 2022) come the findings set out here.

In brackets after ≈: the same amount, converted by molar mass.

For the test, the system named is Enterobacter cloacae 3MRGN (clinical bronchial aspirate isolate). Kind of test: MIC 50, broth micro-dilution, clinical isolate. The conditions noted are these: Enterobacter cloacae, E. Cloacae clinical isolate; read-out: MIC 50. The class given is cell-based. The source says:
3.2 Against Selected Bacteria of the ESKAPE Panel and Enterococcus faecalis (DSM Strains)
Tested reference compounds. Amikacin sulfate (Cat. No. 01693, Chem-Impex), Gentamicin sulfate (Cat. No. G4918, Sigma Aldrich).
Microbial strains. Enterococcus faecalis DSM 2570, Klebsiella pneumoniae DSM 26371, Acinetobacter baumannii DSM 105126, Enterobacter cloacae 3MRGN (clinical bronchial aspirate isolate).
Culture media and equipment. BBL™ Mueller Hinton Broth 2 (Lot. BCBW1143, Cat. No. 70192, Sigma); Trypcase Soy Blood-agar plates (Cat. No. 43001, Biomérieux); Cryoinstant (contains 15% glycerol; Cat. No. 822070ZA, VWR International); GasPak™ EZ Standard Incubation Container (Cat. No. 260671, Becton Dickinson); GasPak™ EZ Campy Container System Sachets (Cat. No. 260680, Becton Dickinson); 96-well deep well plate, 1 mL (Cat. No. 0030506.200, Eppendorf); Plate lid (Cat. No. 0030131.525, Eppendorf); 96-well plate, F-bottom (Cat. No. 260860, Nunc); Incubator (Sartorius Certomat BS-1); Laminar flow (Heraeus HS12); UV/VIS meter (Perkin Elmer Lambda Bio+); Platereader (Tecan Infinite M200 Pro).
Compound preparation. Compounds were prepared in MH2 media at a concentration of 5 mM and stored at 4° C. For testing, solutions of 128 μM were prepared in MH2, for tests against E. faecalis a solution of 512 μM was prepared. Out of these working solutions, 400 μL was transferred to wells in the first column of 96-well deep well plates. Each compound was transferred in triplicate. Plates were previously filled with 200 μL of MH2 media in all wells except for the wells in the first column. After compound and antibiotic addition, the compounds were serial two-fold diluted by transferring 200 μL from the first to the second column, then from the second to the third column and so on. Finally, 200 μL was removed from the last column.
Inoculum preparation. Microorganisms used were all revived from 15% glycerol storage in Croinstant tubes at −28° C. by plating them on blood agar plates. A. baumanni, and E. cloacae were grown aerobically at 37° C., E. faecalis was grown microaerophilically at 37° C., and K. pneumoniae was grown aerobically at 37° C. Plates were stored at 4° C. for up to two weeks, after which new plates were prepared from −28° C. A single colony was inoculated in MH2 media and grown at 37° C. and 200 rpm to an optical density (measured by UV/Vis spectroscopy) of 0.6-0.8 at 600 nm. Out of these suspensions, actual inoculums were prepared by diluting them to an optical density of 0.1 in MH2 media. From these inoculums, 200 μL was transferred to each well, resulting in a final compound concentration range of 64 μM-31.3 nM for, K. pneumoniae, A. baumanni, and E. cloacae, and 256 μM-125 nM for E. faecalis. Plates inoculated with E. faecalis were placed inside a GasPak™ Container System with GasPak™ Campy Container System sachets. All plates were incubated at 200 rpm for 18 h under the microorganism culturing conditions mentioned above.
MIC determination. After 18 h of growth, 200 μL was transferred to a 96-well F-bottom plate. The optical density was determined by a plate reader at 600 nm, with 10 s shaking before reading. Triplicate measurements were averaged, and a growth curve was plotted in Excel. The first column in which the growth reached half the value of maximum growth was determined as the MIC50 value for that particular compound.
MIC50. The MIC50 of a compound was assigned at which the bacterial growth reached half the value of maximum growth.
In general terms: In broth dilution the organism is exposed to a series of concentrations in liquid medium.
Consider `N=C(NCCCN)NC1[C@@H](O)C(OC2[C@@H](F)[C@H](O[C@H]3OC(CN)[C@@H](O)CC3N)C(N)C[C@H]2NC(=O)[C@@H](O)CCN)O[C@H](CO)[C@H]1O` (stereo partly drawn) [ABX5030, Tobra-AHB-F-Gua-3-amino-propyl], for which the MIC50 worked out at 1 µM (≈ 0.67 µg/mL).

As to `CNCCNC(=N)NC1[C@@H](O)C(OC2[C@@H](F)[C@H](O[C@H]3OC(CN)[C@@H](O)CC3N)C(N)C[C@H]2NC(=O)[C@@H](O)CCN)O[C@H](CO)[C@H]1O` (stereo partly drawn) [ABX5038, Tobra-AHB-F-Gua 2-(methylamino)ethyl], the MIC50 came out at 0.5 µM (≈ 0.335 µg/mL).

Consider `N=C(NCC1CCOC1)NC1[C@@H](O)C(OC2[C@@H](F)[C@H](O[C@H]3OC(CN)[C@@H](O)CC3N)C(N)C[C@H]2NC(=O)[C@@H](O)CCN)O[C@H](CO)[C@H]1O` (stereo partly drawn) [ABX5051, Tobra-AHB-F-Gua tetrahydrofuran-3-yl methyl], for which the MIC50 stood at 1 µM (≈ 0.697 µg/mL).

As for `C[C@@H](N)CCNC(=N)NC1[C@@H](O)C(OC2[C@@H](F)[C@H](O[C@H]3OC(CN)[C@@H](O)CC3N)C(N)C[C@H]2NC(=O)[C@@H](O)CCN)O[C@H](CO)[C@H]1O` (stereo partly drawn) [ABX5047, Tobra-AHB-F-Gua (R) 3-amino-butyl], the MIC50 fell in the range of 0.25 to 0.5 µM (≈ 0.171 to 0.342 µg/mL).

On to `CC(C)(C)CCNC(=N)NC1[C@@H](O)C(OC2[C@@H](F)[C@H](O[C@H]3OC(CN)[C@@H](O)CC3N)C(N)C[C@H]2NC(=O)[C@@H](O)CCN)O[C@H](CO)[C@H]1O` (stereo partly drawn) [ABX5025, Tobra-AHB-F-Gua 2-tBu-ethyl], for which the MIC50 is 0.5 to 1 µM (≈ 0.348 to 0.697 µg/mL).

As to `N=C(NCCN)NC1C(O)[C@@H](CO)OC(OC2C(F)[C@H](O[C@H]3OC(CN)[C@@H](O)CC3N)C(N)C[C@H]2NC(=O)[C@@H](O)CCN)[C@@H]1O` (stereo partly drawn) [ABX5020, Tobra-AHB-F-Gua-2-amino-ethyl], the MIC50 came to 0.5 µM (≈ 0.328 µg/mL).
